In assay [1] the test system is Adenovirus Type-19. As to the kind of experiment: Viral Suspension Assay, Adenovirus Type-19. The assay is classed as cell-based. The procedure: (§1) The Viral Suspension Assay was used to evaluate the antiviral properties of Alexidine against Adenovirus Type-4, Adenovirus Type-8 and Adenovirus Type-19 and Cytomegalovirus when exposed in suspension for 1, 2, 5, and 10 minutes. The presence of virus (infectivity) was determined by monitoring the virus specific cytopathic effect (CPE) on an appropriate indicator cell line, rabbit kidney. Results are reported as Percent (%) Reduction in virus titer as compared to the corresponding virus control titer (Table 1). The titer of the virus controls were 7.5 log10 following the one minute exposure time; 7.0 log10 following the two minute exposure time; and 7.75 log10 following both the five and ten minute exposure times.

Assay [2] relates to Adenovirus Type-4. Kind of assay: Viral Suspension Assay, Adenovirus Type-4. The assay is classed as cell-based. On the procedure:
as §1

Assay [3] deals with Adenovirus Type-8. Kind of assay: Viral Suspension Assay, Adenovirus Type-8. The assay is classed as cell-based. On the procedure:
as §1

The test system of assay [4] is Cytomegalovirus. Kind of assay: Viral Suspension Assay, Cytomegalovirus. The assay is classed as cell-based. Particulars: 30 ppm and 99 ppm. The procedure: as §1
Assay [5] deals with Herpes simplex virus type 1. As to the kind of experiment: Viral Suspension Assay, HSV-1. The assay is classed as cell-based. Particulars: 30 ppm and 99 ppm. On the procedure: as §1, with “Herpes simplex virus type 1” for “Adenovirus Type-4, Adenovirus Type-8 and Adenovirus Type-19 and Cytomegalovirus”
For assay [6], the system named is Aspergillus. Particulars: 0.02%; cited from earlier work.

Entries after “also recorded” stand apart in the source; their conditions may differ.

As for `CCCCC(CC)CNC(=N)NC(=N)NCCCCCCNC(=N)NC(=N)NCC(CC)CCCC` (stereo not drawn) [Alexidine, 1,1′-hexamethylene-bis[5-(2-ethylhexyl)biguanide]], the “Percent Reduction (%)” value in assay [1] (Alexidine 30 ppm and 99 ppm, 1, 2, 5 and 10 minutes) was “No reduction”; in assay [2] (Alexidine 30 ppm, 1 minute), 43.8%; in assay [2] (Alexidine 30 ppm, 10 minutes), 68.4%; in assay [2] (Alexidine 99 ppm, 1 minute), 68.4%; in assay [2] (Alexidine 99 ppm, 5 minutes), 43.8%; in assay [2] (Alexidine 99 ppm, 10 minutes), 68.4%. Further, the “Percent Reduction (%)” value worked out at 90.0% in assay [3] (Alexidine 30 ppm, 10 minutes); 90.0% in assay [3] (Alexidine 99 ppm, 5 minutes); 90.0% in assay [3] (Alexidine 99 ppm, 10 minutes). Besides, the “Effectiveness against Adenovirus Type-19 (in words)” value in assay [1] (particular strain tested) is given as “did not appear to be effective”. Also, the “Effectiveness against Adenovirus Type-4 (in words)” value in assay [2] (30 ppm and 99 ppm) is recorded as “somewhat effective”. Further, the “Effectiveness against Adenovirus Type-8 (in words)” value in assay [3] (30 ppm and 99 ppm) is “somewhat effective”. In addition, the “Effectiveness against Cytomegalovirus (in words)” value in assay [4] is listed as “somewhat effective”. The “Effectiveness against HSV-1 (in words)” value in assay [5] is recorded as “effective agents; also recorded: potent antimicrobial agent”.

For polyhexamethylene biguanide, the “Effectiveness in experimental Aspergillus keratitis (in words)” value in assay [6] is on record as “moderately effective”.

The record behind these values is patent US20070142478A1, “COMBINATION ANTIMICROBIAL COMPOSITION AND METHOD OF USE” (priority 2005, published 2007).
